# From patent US4863969A, “Treatment of premalignant lesions and certain malignant tumors” (priority 1985, dated 1989)
# Experiments:
# [1] = Triglyceride / lipid value in blood plasma of rats; assay type: in vivo, albino rats
# Experimental: In order to detect this activity a dosage of compound Ia was administered five times per dosage to 5 male and 5 female albino rats weighing approximately 150 g by means of a probang within 2 days in intervals of in each case 18 and 6 hours. 18 hours after the last application 1-1,2 ml of blood plasma were removed retroorbitally from the experimental animals. The triglyceride value was determined by enzymatic cleavage of the triglyceride with subsequent determination of the resulting glycerine (colour reaction) by means of Periodchrom triglyceride GPO-PAP.
# [2] = tested on: transplantable chondrosarcoma of the rat; assay: Activity on the transplantable chondrosarcoma of the rat; assay type: in vivo, albino rats; settings: 400 mg/kg p.o.
# Experimental: (B) The activity of compond Ia on tumors was, furthermore, determined on the transplantable chondrosarcoma of the rat according to the following method. The solid tumor of a donor animal was finely minced and suspended in phosphate-buffered sodium chloride solution. 0.5 ml of the 30% tumor suspension was implanted subcutaneously into albino rats. […] Each treatment group embraced 7 rats. Suspensions of compound Ia in arachis oil were administered orally five times per week for 4 weeks. The tumor areas were determined on days 1, 15 and 29. The largest (D) and the smallest (d) diameter of the tumors were determined with the aid of a vernier caliper and the product D·d was determined. The change in this area size was calculated in percentages.
smiles,measurement,setting,value
"C/C(=C\c1ccccc1)c1ccc2c(c1)C(C)(C)CCC2(C)C [Compound Ia, 1,2,3,4-tetrahydro-1,1,4,4-tetramethyl-6-[(E)-alpha-methylstyryl]naphthalene]",Effect on the lipid value in blood plasma,[1]; as a sole therapeutically active retinoid,no increase in the lipid value in blood plasma
same,Lipid-lowering activity,[1]; blood plasma,possesses a lipid-lowering activity
same,Triglyceride value in blood plasma,"[1]; female rats, 10 mg/kg by probang, five times within 2 days (control 69 ± 28)",56 ± 25 mg/100 ml
same,Triglyceride value in blood plasma,"[1]; female rats, 100 mg/kg by probang, five times within 2 days (control 69 ± 28)",72 ± 18 mg/100 ml
same,Triglyceride value in blood plasma,"[1]; female rats, 1000 mg/kg by probang, five times within 2 days (control 69 ± 28)",30 ± 8 mg/100 ml
same,Triglyceride value in blood plasma,"[1]; male rats, 10 mg/kg by probang, five times within 2 days (control 201 ± 39)",158 ± 56 mg/100 ml
same,Triglyceride value in blood plasma,"[1]; male rats, 100 mg/kg by probang, five times within 2 days (control 201 ± 39)",173 ± 18 mg/100 ml
same,Triglyceride value in blood plasma,"[1]; male rats, 1000 mg/kg by probang, five times within 2 days (control 201 ± 39)",41 ± 19 mg/100 ml
same,"Tumor area in mm^2, Day 29","[2]; five times per week for 4 weeks, Day 29 (control 5926)",1694 mm^2
same,"Change in tumor area, Day 29","[2]; five times per week for 4 weeks, Day 29 vs Day 1 (control +394%)",+30%
same,"Tumor area in mm^2, Day 1","[2]; five times per week, Day 1",1300 mm^2
same,"Tumor area in mm^2, Day 15 after the commencement of treatment","[2]; five times per week, Day 15 (control 2880)",1416 mm^2
same,"Change in tumor area, Day 15","[2]; five times per week, Day 15 vs Day 1 (control +140%)",+9%
